Common to all, as to format: in vivo
In test [1] the test system is wheat (Triticum aestivum). Briefly: Test A postemergence. The following applies: Triticum aestivum, post-emergence, 240 h; for plant injury at 125 g/ha: 125 g ai/ha, read-out: Wheat plant response rating (0 to 100 scale); for plant injury at 500 g/ha: 500 g ai/ha. In short, it runs like this: (§1)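 Preemergence directed soil spray on seeded pots, or postemergence application to plants 2–10 cm, one- to two-leaf. Solvent mixture non-phytotoxic, with surfactant. Scored ~10 d later, visually, 0–100 vs untreated.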

The test system of test [2] is Galium (catchweed bedstraw, Galium aparine). The test can be described thus: Test A postemergence. To be noted: Galium, post-emergence, 240 h, postemergence; for pest or weed control at 125 g/ha: 125 g ai/ha, visual injury vs untreated controls after approx. 10 d, 0 = no effect, 100 = complete control, read-out: Galium plant response rating (0 to 100 scale); for pest or weed control at 500 g/ha: 500 g ai/ha, 0 to 100 scale, 0 is no effect, 100 is complete control, read-out: Galium plant response rating. In short, it runs like this: as §1

Test [3] deals with giant foxtail (Setaria faberii). Briefly: Test A postemergence. To be noted: Setaria faberi, post-emergence, 240 h; for pest or weed control at 125 g/ha: 125 g ai/ha, read-out: Foxtail, Giant plant response rating (0 to 100 scale); for pest or weed control at 500 g/ha: 500 g ai/ha. In short, it runs like this: as §1
In test [4] the test system is pigweed (Amaranthus retroflexus). The test can be described thus: Test A postemergence. The following applies: Amaranthus retroflexus, post-emergence, 240 h; for pest or weed control at 125 g/ha: 125 g ai/ha, read-out: Pigweed plant response rating (0 to 100 scale); for pest or weed control at 500 g/ha: 500 g ai/ha. In short, it runs like this: as §1
For test [5], the system named is ryegrass, Italian (Italian ryegrass, Lolium multiflorum). The test can be described thus: Test A preemergence. The following applies: Lolium multiflorum, pre-emergence, 240 h, preemergence, 0 to 100 scale where 0 is no effect and 100 is complete control, read-out: Ryegrass, Italian plant response rating; for pest or weed control at 125 g/ha: 125 g ai/ha, visual injury rating, approximately 10 d; for pest or weed control at 500 g/ha: 500 g ai/ha. In short, it runs like this: as §1

The test system of test [6] is barnyardgrass (Echinochloa crus-galli). The test can be described thus: Test A preemergence. The following applies: Echinochloa crus-galli, pre-emergence, 240 h; for pest or weed control at 125 g/ha: 125 g ai/ha; for pest or weed control at 500 g/ha: 500 g ai/ha. In short, it runs like this:
as §1

Test [7] has as its system giant foxtail (Setaria faberii). Briefly: Test A preemergence. The following applies: Setaria faberi, pre-emergence, 240 h; for pest or weed control at 125 g/ha: 125 g ai/ha; for pest or weed control at 500 g/ha: 500 g ai/ha. In short, it runs like this:
as §1

Test [8] has as its system ragweed (common ragweed, Ambrosia elatior). The test can be described thus: Test A preemergence. To be noted: Ambrosia artemisiifolia, pre-emergence, 240 h, preemergence, 0 to 100 scale where 0 is no effect and 100 is complete control, read-out: Ragweed plant response rating; for pest or weed control at 125 g/ha: 125 g ai/ha, visual injury rating, approximately 10 d; for pest or weed control at 500 g/ha: 500 g ai/ha. The essentials:
as §1

In test [9] the test system is pigweed (Amaranthus retroflexus). Briefly: Test A preemergence. To be noted: Amaranthus retroflexus, pre-emergence, 240 h; for pest or weed control at 125 g/ha: 125 g ai/ha; for pest or weed control at 500 g/ha: 500 g ai/ha.
Test [10] deals with Kochia (Kochia scoparia). The test can be described thus: Test A preemergence. To be noted: Bassia scoparia, pre-emergence, 240 h, preemergence, 0 to 100 scale where 0 is no effect and 100 is complete control, read-out: Kochia plant response rating; for pest or weed control at 125 g/ha: 125 g ai/ha, visual injury rating, approximately 10 d; for pest or weed control at 500 g/ha: 500 g ai/ha. The essentials:
as §1

Test [11] has as its system rice (Oryra sativa). The test can be described thus: Test B flooded paddy test. To be noted: Oryza sativa, 250 g ai/ha, Flood; 0 to 100 scale where 0 is no effect and 100 is complete control; read-out: Rice plant response rating. The essentials:
(§2)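 2-leaf plants; pots flooded 3 cm over soil; cpd added to paddy water; depth held; greenhouse 13–15 d; visual rating vs controls, 0 = no effect, 100 = complete control.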

Test [12] has as its system barnyardgrass (Echinochloa crus-galli). Briefly: Test B flooded paddy test. To be noted: Echinochloa crus-galli, 250 g ai/ha, Flood; 0 to 100 scale where 0 is no effect and 100 is complete control; read-out: Barnyardgrass plant response rating. The essentials: as §2
For test [13], the system named is ducksalad (Heteranthera limosa). Briefly: Test B flooded paddy test. To be noted: Heteranthera limosa, 250 g ai/ha, Flood; 0 to 100 scale where 0 is no effect and 100 is complete control; read-out: Ducksalad plant response rating. In short, it runs like this:
as §2

Test [14] relates to sedge, umbrella (small-flower umbrella sedge, Cyperus difformis). The test can be described thus: Test B flooded paddy test. To be noted: Cyperus difformis, 250 g ai/ha, Flood; 0 to 100 scale where 0 is no effect and 100 is complete control; read-out: Sedge, Umbrella plant response rating. The essentials: as §2
Setting [15] is: postemergence, visual injury vs untreated controls after approx. 10 d, 0 = no effect, 100 = complete control.
[16] abbreviates: postemergence, 0 to 100 scale, 0 is no effect, 100 is complete control, read-out: Foxtail, Giant plant response rating.
[17] abbreviates: postemergence, 0 to 100 scale, 0 is no effect, 100 is complete control, read-out: Pigweed plant response rating.
Setting [18] is: preemergence, visual injury rating, 0 to 100 scale where 0 is no effect and 100 is complete control, approximately 10 d, read-out: Barnyardgrass plant response rating.
[19] abbreviates: preemergence, 0 to 100 scale where 0 is no effect and 100 is complete control, read-out: Barnyardgrass plant response rating.
Where [20] appears, read: preemergence, visual injury rating, 0 to 100 scale where 0 is no effect and 100 is complete control, approximately 10 d, read-out: Foxtail, Giant plant response rating.
Where [21] appears, read: preemergence, 0 to 100 scale where 0 is no effect and 100 is complete control, read-out: Foxtail, Giant plant response rating.
Where [22] appears, read: preemergence, visual injury rating, 0 to 100 scale where 0 is no effect and 100 is complete control, approximately 10 d, read-out: Pigweed plant response rating.
The mark [23] stands for this setting: preemergence, 0 to 100 scale where 0 is no effect and 100 is complete control, read-out: Pigweed plant response rating.
Setting [24] is: Postemergence, visual rating about 10 d after treatment.
The mark [25] stands for this setting: Postemergence, visual injury, 0 to 100 scale (0 no effect, 100 complete control), approx. 10 d, read-out: Plant response rating, Wheat.
[26] abbreviates: Postemergence, visual injury, 0 to 100 scale (0 no effect, 100 complete control), approx. 10 d, read-out: Plant response rating, Foxtail, Giant.
The mark [27] stands for this setting: Postemergence, visual injury, 0 to 100 scale (0 no effect, 100 complete control), approx. 10 d, read-out: Plant response rating, Pigweed.
Where [28] appears, read: preemergence, 0 to 100 scale (0 no effect, 100 complete control), read-out: Plant response rating, Barnyardgrass.
The mark [29] stands for this setting: Preemergence, 0 to 100 scale (0 no effect, 100 complete control), read-out: Plant response rating, Barnyardgrass.
[30] abbreviates: preemergence, 0 to 100 scale (0 no effect, 100 complete control), read-out: Plant response rating, Foxtail, Giant.
Where [31] appears, read: Preemergence, 0 to 100 scale (0 no effect, 100 complete control), read-out: Plant response rating, Foxtail, Giant.
Setting [32] is: preemergence, 0 to 100 scale (0 no effect, 100 complete control), read-out: Plant response rating, Pigweed.
[33] abbreviates: Preemergence, 0 to 100 scale (0 no effect, 100 complete control), read-out: Plant response rating, Pigweed.

Like-named read-outs stand apart in the source and are kept apart here.

Consider `Cc1cccc([C@H]2CN(C)C(=O)[C@@H]2C(=O)Nc2cccc(F)c2C)c1` [Compound 1233], for which the plant injury at 125 g/ha in [1] (setting [15]) came out at 40%. For the same compound, the pest or weed control at 125 g/ha in [2] came out at 20%; in test [3] (setting [15]) it was 80%; in test [4] (setting [15]), 0%; in [5] it was 40%; in test [6] (setting [18]) it was 90%; in test [7] (setting [20]) it was 90%. In addition, the pest or weed control at 125 g/ha in [8] came to 30%; in test [9] (setting [22]), 40%; in test [10], 70%. Further, the pest or weed control at 500 g/ha in test [2] is 60%; in test [3] (setting [16]) it was 90%; in test [4] (setting [17]) it was 20%; in [5], 70%; in test [6] (setting [19]), 90%; in [7] (setting [21]), 90%. Besides, the pest or weed control at 500 g/ha amounted to 50% in [8], 40% in [9] (setting [23]) and 70% in test [10]. The pest or weed control at 250 g/ha in test [11] was 15%; in test [12], 80%; in test [13] it was 100%; in test [14] it was 0%.

For `Cc1ccc([C@H]2CCN(C)C(=O)[C@@H]2C(=O)Nc2ccccc2C(F)(F)F)cc1` [Compound 1219], the plant injury at 125 g/ha in [1] (setting [15]) was 0%. In addition, the plant injury at 500 g/ha in test [1] (postemergence, 0 to 100 scale, 0 is no effect, 100 is complete control, read-out: Wheat plant response rating) was 0%. Besides, the pest or weed control at 125 g/ha came out at 0% in test [2]; 50% in test [3] (setting [15]); 0% in test [4] (setting [15]); 0% in test [5]; 70% in test [6] (setting [18]); 80% in [7] (setting [20]). Also, the pest or weed control at 125 g/ha in test [8], in test [9] (setting [22]) and in [10] was 0% in each case. For the same compound, the pest or weed control at 500 g/ha worked out at 0% in test [2]; 80% in test [3] (setting [16]); 0% in test [4] (setting [17]); 0% in test [5]; 90% in test [6] (setting [19]); 90% in test [7] (setting [21]). Further, the pest or weed control at 500 g/ha in test [8], in test [9] (setting [23]) and in test [10] was 0% in each case. The pest or weed control at 250 g/ha is 0% in test [11], 0% in [12], 60% in test [13] and 40% in [14].

Take `O=C1NCC(c2ccccc2)C1C(=O)Nc1cc(F)ccc1F` (centres unmarked) [Compound 1359]: the plant injury at 125 g/ha in test [1] (setting [24]) was determined as 0%. The plant injury at 500 g/ha in [1] (setting [25]) was determined as 0%. Moreover, the pest or weed control at 125 g/ha in [3] (setting [24]), in [4] (setting [24]), in test [6] (setting [29]), in test [7] (setting [31]) and in test [9] (setting [33]) was 0% each time. For the same compound, the pest or weed control at 500 g/ha in test [3] (setting [26]), in test [4] (setting [27]), in test [6] (setting [28]), in test [7] (setting [30]) and in test [9] (setting [32]) was 0% each time.

Regarding `O=C1NCC(c2ccccc2)C1C(=O)Nc1ccc(C(F)(F)F)cc1` (centres unmarked) [Compound 1362], in test [1] (setting [24]), the plant injury at 125 g/ha came to 0%. In addition, the plant injury at 500 g/ha in [1] (setting [25]) turned out to be 0%. Also, the pest or weed control at 125 g/ha in test [3] (setting [24]), in test [4] (setting [24]), in [6] (setting [29]), in [7] (setting [31]) and in [9] (setting [33]) was 0% throughout. The pest or weed control at 500 g/ha in test [3] (setting [26]), in test [4] (setting [27]), in test [6] (setting [28]), in test [7] (setting [30]) and in test [9] (setting [32]) was 0% in each case.

The values are drawn from US12077503B2, “Substituted cyclic amides and their use as herbicides” (FMC CORPORATION, priority 2015, dated 2024).
